{
  "source": "patent US20220023269A1",
  "about": "“Methods Of Treating Diabetes In Severe Insulin-Resistant Diabetic Subjects” (Balticgruppen Bio AB, priority 2018, published 2022)",
  "key": {"DIO mice": {"test_system": "DIO mice", "assay": "Prevention of dysglycemia and insulin resistance in DIO B6 mice (oral gavage, 8 w)", "format": "in vivo", "conditions": "100 mg/kg/day each", "procedure": "MATSUDA index was calculated via: […] […] All cell lines were lysed in 0.1 M Tris-HCl, pH 6.8, 2% SDS, 10 mM sodium fluoride (SIGMA #S7920), 10 mM β-glycerophosphate (SIGMA #G6376), and 1 mM sodium vanadate (SIGMA #72060) and supernatant collected after 1 minute at 14,000 rpm. Islets (human and mouse) were lysed in 0.1 M Tris-HCl, pH 6.8, 2% SDS, protease inhibitor (Roche #04 693 124 001) and phosphatase inhibitor (Roche #04 906 837 001). […] The supernatant was collected after 2 min at 14,000 rpm. This procedure was repeated until all fat was eliminated and the supernatant was clear, at 4° C. Samples were analysed on 4-15% polyacrylamide gels. Values were normalised toward AMPKα, β-Actin, GAPDH or the respective non-phosphorylated counterpart. For RNA purification calf muscle, iWAT, interscapular BAT, and left lateral liver lobe was crushed in a pestle using liquid nitrogen before turning to respective RNA kit. RNA from liver was prepared using Total RNA isolation Nucleospin II Kit (Macherey-Nagel #740955.50). RNA from adipose tissue was prepared using RNeasy Lipid Tissue Mini kit (Qiagen #74804). RNA from calf muscle tissue was prepared using RNeasy Fibrous Tissue Mini kit (Qiagen #74704). First strand cDNA synthesis was done using SuperScript III (First-Strand Synthesis SuperMix for qRT-PCR, Invitrogen #11752-250) according to the manufacturer's instructions. Total RNA was prepared from isolated islets using RNeasy Micro Kit (Qiagen #74004) and first strand cDNA synthesis was done using Superscript III (Invitrogen #18080-051) according to the manufacturer's instructions. Quantification of mRNA expression levels was performed essentially as previously described (Reference 3)."}, "hIAPPtg islets": {"test_system": "hIAPPtg islets", "assay": "Ex vivo islet amyloid assay", "format": "cell-based, mouse", "conditions": "22 mM glucose", "procedure": "Islets amyloid was quantification was done on pancreatic tissues isolated from hIAPPtg mice on HFD for 16 weeks (n=7 mice/n=69 islets) and hIAPPtg mice on HFD for 9 weeks then switched to test material-HFD (2 mg/g) for 7 weeks (n=5 mice/n=48 islets). Isolated pancreases was direct frozen, sectioned, and amyloid content quantified by staining with Thioflavin-S as previously described (Reference 2). For ex vivo analyses, islets were isolated by collagenase digestion of the pancreas (Reference 1) and cultured in RPMI medium 1640 (GIBCO #11879-0) supplemented with 11.1 or 22.2 mM glucose (GIBCO #A24940-01), 1% fetal bovine serum (GIBCO #10500), 50 U; μg/ml Pen/Strep (Gibco #15140-122), 10 mM Hepes (Umeå University, Laboratory medicine), 1 mM sodium pyruvate (GIBCO #11360-039) and 0.1% 2-Mercaptoethanol (Sigma #M3148). 0, 2.5, 5.0, and 10 μM test material were added from day 0 of culture. For assessing the effect of autophagy inhibition, 3-Methyladenine (3-MA, Aldrich #M9281), 5 μM, was added from day 0 of culture in combination with test material, 5 μM. The control contained DMSO 1:2000. Medium and compounds were changed every second day. After 92 hours of treatment islets were embedded, sectioned and amyloid content quantified by staining with Thioflavin-S as previously described (Reference 2). A minimum of 3 independent experiments was evaluated."}, "primary mouse islets": {"test_system": "primary mouse islets", "assay": "Unfolded protein response gene expression in islets at 22 mM glucose", "format": "cell-based", "procedure": "For RNA purification calf muscle, iWAT, interscapular BAT, and left lateral liver lobe was crushed in a pestle using liquid nitrogen before turning to respective RNA kit. RNA from liver was prepared using Total RNA isolation Nucleospin II Kit (Macherey-Nagel #740955.50). RNA from adipose tissue was prepared using RNeasy Lipid Tissue Mini kit (Qiagen #74804). RNA from calf muscle tissue was prepared using RNeasy Fibrous Tissue Mini kit (Qiagen #74704). First strand cDNA synthesis was done using SuperScript III (First-Strand Synthesis SuperMix for qRT-PCR, Invitrogen #11752-250) according to the manufacturer's instructions. Total RNA was prepared from isolated islets using RNeasy Micro Kit (Qiagen #74004) and first strand cDNA synthesis was done using Superscript III (Invitrogen #18080-051) according to the manufacturer's instructions. Quantification of mRNA expression levels was performed essentially as previously described (Reference 3). Tyrosine 3-monooxygenase/tryptophan 5-monoxygenase activation protein, zeta polypeptide (YWHAS) was used to normalise expression levels except for islets where TBP was used."}},
  "data": [
    {"smiles": "O=C(Nc1nc(=O)n(Cc2ccc(Cl)cc2)s1)c1ccc(Cl)cc1", "note": "[test material, 4-chloro-N-[2-[(4-chlorophenyl)methyl]-3-oxo-1,2,4-thiadiazol-5-yl]benzamide]", "values": [
      {"measurement": "HFD-provoked increase in fasted glucose", "setting": "DIO mice; oral gavage, 6 w", "result": "averted the HFD-provoked increase"},
      {"measurement": "HFD-provoked increase in fasted plasma insulin", "setting": "DIO mice; oral gavage, 6 w", "result": "averted the HFD-provoked increase"},
      {"measurement": "insulin resistance (HOMA-IR)", "setting": "DIO mice; oral gavage, vs vehicle", "result": "did not develop insulin resistance"},
      {"measurement": "Glut1 mRNA levels in calf muscle", "setting": "DIO mice; 8 w", "result": "increased Glut1 mRNA levels"},
      {"measurement": "Txnip mRNA levels in calf muscle", "setting": "DIO mice; 8 w", "result": "reduced Txnip mRNA levels"},
      {"measurement": "pAMPK in calf muscle", "setting": "DIO mice; 8 w", "result": "significantly increased pAMPK"},
      {"measurement": "preventive effect on amyloid formation in presence of autophagy inhibitor 3-MA", "setting": "hIAPPtg islets; 5.0 μM test material + 5.0 μM 3-MA", "result": "significantly attenuated"},
      {"measurement": "amyloid formation (Thio-S+ deposits)", "setting": "hIAPPtg islets; 2.5, 5.0, 10 μM, dose-dependent", "result": "attenuated amyloid formation"},
      {"measurement": "expression of unfolded protein response genes (ER stress)", "setting": "primary mouse islets", "result": "largely prevented an increased expression of unfolded protein response genes"}
    ]}
  ]
}
